Organism: Rattus norvegicus
Experiment: DrugMatrix - Regimen: Daily Repeat
Assay type: toxicity, organism-based, Sprague-Dawley
Set-up: regimen Daily Repeat, gender Male, age 6-8 weeks
Conditions: in vivo, po, route oral GAVAGE, […]; for ABSOLUTE BASOPHIL / ABSOLUTE EOSINOPHIL / ABSOLUTE LYMPHOCYTE / ABSOLUTE MONOCYTE / ABSOLUTE SEGMENTED NEUTROPHIL / BASOPHIL / EOSINOPHIL / ERYTHROCYTE COUNT / HEMATOCRIT / HEMOGLOBIN / LEUKOCYTE COUNT / LYMPHOCYTE / MEAN CORPUSCULAR HEMOGLOBIN / MEAN CORPUSCULAR HEMOGLOBIN CONCENTRATION / MEAN CORPUSCULAR VOLUME / MONOCYTE / NEUTROPHIL / NUCLEATED RED BLOOD CELLS / PLATELET COUNT: tissue Blood; for ALANINE AMINOTRANSFERASE / ALBUMIN / ALKALINE PHOSPHATASE / ASPARTATE AMINOTRANSFERASE / BLOOD UREA NITROGEN / CARBON DIOXIDE / CHLORIDE / CHOLESTEROL / CREATINE PHOSPHOKINASE / CREATININE / GLUCOSE / LACTATE DEHYDROGENASE / LIPASE / PHOSPHORUS / POTASSIUM / SODIUM / TOTAL BILIRUBIN / TOTAL PROTEIN / URIC ACID: tissue Plasma
[1] = 0 mg/kg, 72 h, dose level Control, time 3 day
[2] = 0 mg/kg, 120 h, dose level Control, time 5 day
[3] = 10 mg/kg, 72 h, dose level Low, time 3 day

Compound: COc1cc(N)c(Cl)cc1C(=O)NC1CCN(CCCOc2ccc(F)cc2)CC1OC (centres undefined) [CISAPRIDE]
- ABSOLUTE BASOPHIL [1]: 0 CELLS/uL
- ABSOLUTE EOSINOPHIL [1]: 13.67 CELLS/uL
- ABSOLUTE LYMPHOCYTE [1]: 10069.5 CELLS/uL
- ABSOLUTE MONOCYTE [1]: 50 CELLS/uL
- ABSOLUTE SEGMENTED NEUTROPHIL [1]: 516.83 CELLS/uL
- BASOPHIL [1]: 0%
- EOSINOPHIL [1]: 0.17%
- ERYTHROCYTE COUNT [1]: 5.44 x10E6/uL
- HEMATOCRIT [1]: 33.88%
- HEMOGLOBIN [1]: 13.23 G/DL
- LEUKOCYTE COUNT [1]: 10.65 x10E3/uL
- LYMPHOCYTE [1]: 94.67%
- MEAN CORPUSCULAR HEMOGLOBIN [1]: 24.37 pg
- MEAN CORPUSCULAR HEMOGLOBIN CONCENTRATION [1]: 39.05 G/DL
- MEAN CORPUSCULAR VOLUME [1]: 62.38 fL
- MONOCYTE [1]: 0.67%
- NEUTROPHIL [1]: 4.5%
- NUCLEATED RED BLOOD CELLS [1]: 0.33 /100WBC
- PLATELET COUNT [1]: 414.5 x10E3/uL
- ALANINE AMINOTRANSFERASE [1]: 72 u/L
- ALBUMIN [1]: 3.75 G/DL
- ALKALINE PHOSPHATASE [1]: 375 u/L
- ASPARTATE AMINOTRANSFERASE [1]: 87.5 u/L
- BLOOD UREA NITROGEN [1]: 14 mg/dL
- CARBON DIOXIDE [1]: 27.5 mmol/L
- CHLORIDE [1]: 95.83 MEQ/L
- CHOLESTEROL [1]: 68.5 mg/dL
- CREATINE PHOSPHOKINASE [1]: 284.33 u/L
- CREATININE [1]: 0.16 mg/dL
- GLUCOSE [1]: 156.67 mg/dL
- LACTATE DEHYDROGENASE [1]: 101.83 u/L
- LIPASE [1]: 9.67 u/L
- PHOSPHORUS [1]: 10.33 mg/dL
- POTASSIUM [1]: 5.22 MEQ/L
- SODIUM [1]: 137.67 MEQ/L
- TOTAL BILIRUBIN [1]: 0.13 mg/dL
- TOTAL PROTEIN [1]: 5.43 G/DL
- URIC ACID [1]: 0.8 mg/dL
- ABSOLUTE BASOPHIL [2]: 0 CELLS/uL
- ABSOLUTE EOSINOPHIL [2]: 20.67 CELLS/uL
- ABSOLUTE LYMPHOCYTE [2]: 11518.33 CELLS/uL
- ABSOLUTE MONOCYTE [2]: 47 CELLS/uL
- ABSOLUTE SEGMENTED NEUTROPHIL [2]: 614 CELLS/uL
- BASOPHIL [2]: 0%
- EOSINOPHIL [2]: 0.17%
- ERYTHROCYTE COUNT [2]: 5.61 x10E6/uL
- HEMATOCRIT [2]: 34.25%
- HEMOGLOBIN [2]: 13.38 G/DL
- LEUKOCYTE COUNT [2]: 12.2 x10E3/uL
- LYMPHOCYTE [2]: 94.33%
- MEAN CORPUSCULAR HEMOGLOBIN [2]: 23.83 pg
- MEAN CORPUSCULAR HEMOGLOBIN CONCENTRATION [2]: 39.08 G/DL
- MEAN CORPUSCULAR VOLUME [2]: 61.03 fL
- MONOCYTE [2]: 0.33%
- NEUTROPHIL [2]: 5.17%
- NUCLEATED RED BLOOD CELLS [2]: 0 /100WBC
- PLATELET COUNT [2]: 941.83 x10E3/uL
- ALANINE AMINOTRANSFERASE [2]: 68.83 u/L
- ALBUMIN [2]: 4.12 G/DL
- ALKALINE PHOSPHATASE [2]: 492.67 u/L
- ASPARTATE AMINOTRANSFERASE [2]: 83.33 u/L
- BLOOD UREA NITROGEN [2]: 14 mg/dL
- CARBON DIOXIDE [2]: 37 mmol/L
- CHLORIDE [2]: 98.67 MEQ/L
- CHOLESTEROL [2]: 56.5 mg/dL
- CREATINE PHOSPHOKINASE [2]: 167.33 u/L
- CREATININE [2]: 0.17 mg/dL
- GLUCOSE [2]: 157.5 mg/dL
- LACTATE DEHYDROGENASE [2]: 104.83 u/L
- LIPASE [2]: 10 u/L
- PHOSPHORUS [2]: 10.43 mg/dL
- POTASSIUM [2]: 5.46 MEQ/L
- SODIUM [2]: 143.87 MEQ/L
- TOTAL BILIRUBIN [2]: 0.17 mg/dL
- TOTAL PROTEIN [2]: 5.72 G/DL
- URIC ACID [2]: 0.85 mg/dL
- ABSOLUTE BASOPHIL [3]: 0 CELLS/uL
- ABSOLUTE EOSINOPHIL [3]: 28.67 CELLS/uL
- ABSOLUTE LYMPHOCYTE [3]: 6489.33 CELLS/uL
- ABSOLUTE MONOCYTE [3]: 15.33 CELLS/uL
- ABSOLUTE SEGMENTED NEUTROPHIL [3]: 433.33 CELLS/uL
- BASOPHIL [3]: 0%
- EOSINOPHIL [3]: 0.33%
- ERYTHROCYTE COUNT [3]: 5.4 x10E6/uL
- HEMATOCRIT [3]: 33.3%
- HEMOGLOBIN [3]: 13.8 G/DL
- LEUKOCYTE COUNT [3]: 6.97 x10E3/uL
- LYMPHOCYTE [3]: 93%
- MEAN CORPUSCULAR HEMOGLOBIN [3]: 25.63 pg
- MEAN CORPUSCULAR HEMOGLOBIN CONCENTRATION [3]: 41.53 G/DL
- MEAN CORPUSCULAR VOLUME [3]: 61.73 fL
- MONOCYTE [3]: 0.33%
- NEUTROPHIL [3]: 6.33%
- NUCLEATED RED BLOOD CELLS [3]: 0 /100WBC
- PLATELET COUNT [3]: 546 x10E3/uL
- ALANINE AMINOTRANSFERASE [3]: 94.67 u/L
- ALBUMIN [3]: 3.93 G/DL
- ALKALINE PHOSPHATASE [3]: 442.33 u/L
- ASPARTATE AMINOTRANSFERASE [3]: 96.33 u/L
- BLOOD UREA NITROGEN [3]: 14.33 mg/dL
- CARBON DIOXIDE [3]: 26 mmol/L
- CHLORIDE [3]: 96.33 MEQ/L
- CHOLESTEROL [3]: 72.67 mg/dL
- CREATINE PHOSPHOKINASE [3]: 359.33 u/L
- CREATININE [3]: 0.12 mg/dL
- GLUCOSE [3]: 150 mg/dL
- LACTATE DEHYDROGENASE [3]: 116.67 u/L
- LIPASE [3]: 12 u/L
- PHOSPHORUS [3]: 10.9 mg/dL
- POTASSIUM [3]: 5.56 MEQ/L
- SODIUM [3]: 139.97 MEQ/L
- TOTAL BILIRUBIN [3]: 0.2 mg/dL
- TOTAL PROTEIN [3]: 5.53 G/DL
- URIC ACID [3]: 0.7 mg/dL

From ChEMBL document CHEMBL3885881, “DrugMatrix”
